Experimental data: article PMC12892976, “Alkylation-based optimization of antifungal FPPS inhibitors yields a potent, broad-spectrum lipophilic zoledronate derivative” (mBio, 2025)
Where two headings read alike, the source gives them in different places.

Legend:
Candida parapsilosis = experiment: MIC broth microdilution (CLSI); format: cell-based; settings: Candida parapsilosis ATCC 22018
Description: (§1) Antifungal susceptibility was determined by broth microdilution according to the CLSI guidelines described in M27-Ed4 ([16]). […] MFC was determined by back-plating drug-treated cultures from MIC broths onto SDA plates. The MFC was defined as the lowest concentration from which no colonies could be cultured.

Saccharomyces cerevisiae [1] = experiment: checkerboard drug interaction (FICI, MICc); format: cell-based; set-up: INH MICc / INH MICc (ITR:INH) / INH MICc (KET:INH) / INH MICc (FLC:INH): unit not given beside the values;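 also: simplified diagonal checkerboard screen pairing antifungals with FPPS inhibitors, FICI calculated under the Loewe additivity model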
eight fungal species = experiment: MIC/MFC summary across the eight fungal species of Table 1; format: cell-based
Description: The antifungal activity of these compounds was evaluated according to CLSI guidelines ([16]).

[2] = system: Cryptococcus deuterogattii; experiment: checkerboard drug interaction (FICI, MICc);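 as to all read-outs here: simplified diagonal checkerboard screen pairing antifungal drugs with FPPS inhibitors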; format: cell-based; settings: for INH MICc: C. deuterogattii
Description: (§2) Drug interactions between antifungals and FPPS inhibitors were investigated using a simplified checkerboard diagonal screening method ([45]). […] FICIs were determined according to the Loewe additivity model ([17]).

Candida glabrata = experiment: checkerboard drug interaction (FICI, MICc);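 as to all read-outs here: simplified diagonal checkerboard screen pairing antifungals with FPPS inhibitors, FICI calculated under the Loewe additivity model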; format: cell-based; settings: for INH MICc: C. glabrata
Description: as §2

Cryptococcus neoformans = experiment: checkerboard drug interaction (FICI, MICc);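 as to all read-outs here: antifungal plus FPPS inhibitor pairs tested against Cryptococcus neoformans by simplified diagonal checkerboard screening, FICI computed under the Loewe additivity model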; format: cell-based; settings: for INH MICc: C. neoformans
Description: as §2

Saccharomyces cerevisiae [3] = experiment: MIC/MFC broth microdilution (CLSI); format: cell-based; settings: Saccharomyces cerevisiae S288c
Description: as §1

Trichophyton rubrum = experiment: MIC/MFC broth microdilution (CLSI)
Description: as §1

Candida albicans = experiment: checkerboard drug interaction (FICI, MICc);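 as to all read-outs here: antifungal plus FPPS inhibitor combinations on Candida albicans tested by a simplified diagonal checkerboard screen, with FICI calculated under the Loewe additivity model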; format: cell-based; settings: for INH MICc: C. albicans
Description: as §2

[4] = FLC:INH combination, MIC of the inhibitor in combination with FLC
[5] = ITR:INH combination, MIC of the inhibitor in combination with ITR
[6] = KET:INH combination, MIC of the inhibitor in combination with KET

For `CCCCCCCCCCn1cc[n+](CC(O)(P(=O)(O)O)P(=O)(O)O)c1` [10-ZOL, Decyl-zoledronate], which “MIC / MEC” value (Candida parapsilosis) is on record?
The value was 1 µg/mL.

And the FICI (Saccharomyces cerevisiae [1]; 5FC:10-ZOL)?
Its FICI is 2.

And the FICI (Saccharomyces cerevisiae [1]; ITR:10-ZOL)?
The FICI was 1.

And the “FLC MICc” value (Saccharomyces cerevisiae [1]; S. cerevisiae, FLC:INH combination, MIC of FLC in combination with the inhibitor)?
Its value is 1.

What about the “INH MICc” value (Saccharomyces cerevisiae [1]; S. cerevisiae, FLC:INH combination, MIC of the inhibitor in combination with FLC) of the same molecule?
Its value is 0.5.

And the FICI (Saccharomyces cerevisiae [1]; S. cerevisiae, ITR:INH combination)?
Its FICI is 1.

And the “ITR MICc” value (Saccharomyces cerevisiae [1]; S. cerevisiae, ITR:INH combination, MIC of ITR in combination with the inhibitor)?
The value was 0.125.

And the “INH MICc” value (Saccharomyces cerevisiae [1]; S. cerevisiae, ITR:INH combination, MIC of the inhibitor in combination with ITR)?
The value was 0.5.

What about the “KET MICc” value (Saccharomyces cerevisiae [1]; S. cerevisiae, KET:INH combination, MIC of KET in combination with the inhibitor) of the same molecule?
The value was 0.25.

What about the “INH MICc” value (Saccharomyces cerevisiae [1]; S. cerevisiae, KET:INH combination, MIC of the inhibitor in combination with KET) of the same molecule?
The value was 0.25.

What about the “bisphosphonate MICc” value (Saccharomyces cerevisiae [1]; with 5FC) of the same molecule?
The value was 1.

And the “bisphosphonate MICc” value (Saccharomyces cerevisiae [1]; with AMB)?
Its value is 0.25.

And the “bisphosphonate MICc” value (Saccharomyces cerevisiae [1]; with CAS)?
Its value is 0.063.

What about the “bisphosphonate MICc” value (Saccharomyces cerevisiae [1]; with FLC) of the same molecule?
Its value is 0.5.

And the “bisphosphonate MICc” value (Saccharomyces cerevisiae [1]; with ITR)?
Its value is 0.5.

What about the FICI (Saccharomyces cerevisiae [1]; with ITR, Saccharomyces cerevisiae) of the same molecule?
Its FICI is 1.00.

What about the “bisphosphonate MICc” value (Saccharomyces cerevisiae [1]; with KET) of the same molecule?
The value was 0.25.

And the “bisphosphonate MICc” value (Saccharomyces cerevisiae [1]; with VOR)?
The value was 0.25.

What about the “Geometric mean MFC” value (eight fungal species; across eight species) of the same molecule?
Its value is 4.8 µg/mL.

And the “Geometric mean MIC” value (eight fungal species; across eight species)?
Its value is 1.2 µg/mL.

What about the MFC (eight fungal species; across eight species, read-out: Geometric mean MFC) of the same molecule?
The MFC was 4.8 µg/mL.

And the “range of MICs across the tested fungal species” value (eight fungal species; eight species)?
Its value is 0.5 to 4 µg/mL.

And the MIC (eight fungal species; geometric mean across eight species, read-out: GM fungal MIC)?
Its MIC is 1.2 µg/mL.

What about the MIC (eight fungal species; read-out: Geometric mean MIC) of the same molecule?
The MIC was 1.2 µg/mL.

And the “INH MICc” value [2, 4]?
The value was 0.125.

And the “INH MICc” value [2, 5]?
Its value is 0.125.

And the “INH MICc” value [2, 6]?
The value was 0.063.

What about the “bisphosphonate MICc” value ([2]; with 5FC) of the same molecule?
Its value is 1.

What about the “bisphosphonate MICc” value ([2]; with AMB) of the same molecule?
The value was 0.063.

And the “bisphosphonate MICc” value ([2]; with CAS)?
Its value is 1.

And the “bisphosphonate MICc” value ([2]; with FLC)?
The value was 0.125.

What about the “bisphosphonate MICc” value ([2]; with ITR) of the same molecule?
The value was 0.125.

What about the “bisphosphonate MICc” value ([2]; with KET) of the same molecule?
Its value is 0.063.

What about the “bisphosphonate MICc” value ([2]; with VOR) of the same molecule?
Its value is 0.063.

And the “INH MICc” value (Candida glabrata; [4])?
The value was 0.125.

And the “INH MICc” value (Candida glabrata; [5])?
Its value is 0.063.

And the “INH MICc” value (Candida glabrata; [6])?
The value was 0.031.

What about the “bisphosphonate MICc” value (Candida glabrata; with 5FC) of the same molecule?
The value was 0.125.

What about the “bisphosphonate MICc” value (Candida glabrata; with AMB) of the same molecule?
The value was 0.25.

What about the “bisphosphonate MICc” value (Candida glabrata; with CAS) of the same molecule?
The value was 0.25.

And the “bisphosphonate MICc” value (Candida glabrata; with FLC)?
Its value is 0.125.

And the “bisphosphonate MICc” value (Candida glabrata; with ITR)?
Its value is 0.063.

What about the “bisphosphonate MICc” value (Candida glabrata; with KET) of the same molecule?
Its value is 0.031.

What about the “bisphosphonate MICc” value (Candida glabrata; with VOR) of the same molecule?
The value was 0.03125.

And the “INH MICc” value (Cryptococcus neoformans; [4])?
The value was 0.125.

What about the “INH MICc” value (Cryptococcus neoformans; [5]) of the same molecule?
Its value is 0.063.

What about the “INH MICc” value (Cryptococcus neoformans; [6]) of the same molecule?
Its value is 0.063.

And the “bisphosphonate MICc” value (Cryptococcus neoformans; with 5FC)?
The value was 0.5.

And the “bisphosphonate MICc” value (Cryptococcus neoformans; with AMB)?
Its value is 0.25.

And the “bisphosphonate MICc” value (Cryptococcus neoformans; with CAS)?
Its value is 0.5.

What about the “bisphosphonate MICc” value (Cryptococcus neoformans; with FLC) of the same molecule?
The value was 0.125.

What about the “bisphosphonate MICc” value (Cryptococcus neoformans; with ITR) of the same molecule?
The value was 0.063.

What about the “bisphosphonate MICc” value (Cryptococcus neoformans; with KET) of the same molecule?
The value was 0.063.

And the “bisphosphonate MICc” value (Cryptococcus neoformans; with VOR)?
Its value is 0.25.

What about the MFC (Saccharomyces cerevisiae [3]) of the same molecule?
The MFC was 8 µg/mL.

And the MIC (Saccharomyces cerevisiae [3])?
The MIC was 1 µg/mL.

What about the “MIC / MEC” value (Saccharomyces cerevisiae [3]) of the same molecule?
Its value is 1 µg/mL.

And the MFC (Trichophyton rubrum; Trichophyton rubrum)?
Its MFC is 64 µg/mL.

And the MIC (Trichophyton rubrum; Trichophyton rubrum)?
The MIC was 1 µg/mL.

And the “MIC / MEC” value (Trichophyton rubrum; Trichophyton rubrum R-218)?
Its value is 2 µg/mL.

And the “INH MICc” value (Candida albicans; [4])?
The value was 0.0625.

And the “INH MICc” value (Candida albicans; [5])?
The value was 0.25.

What about the “INH MICc” value (Candida albicans; [6]) of the same molecule?
Its value is 0.125.

And the “bisphosphonate MICc” value (Candida albicans; with 5FC)?
The value was 0.5.

And the “bisphosphonate MICc” value (Candida albicans; with AMB)?
Its value is 0.25.

What about the “bisphosphonate MICc” value (Candida albicans; with CAS) of the same molecule?
The value was 1.

And the “bisphosphonate MICc” value (Candida albicans; with FLC)?
The value was 0.0625.
